Results as given in ChEMBL document CHEMBL4825781, “Role of Fluorination in the Histone Deacetylase 6 (HDAC6) Selectivity of Benzohydroxamate-Based Inhibitors” (ACS Med Chem Lett, 2021).

What was measured:
Homo sapiens = species: Homo sapiens; assay: Selectivity index, ratio of IC50 for recombinant human C-terminal His-tagged HDAC1 expressed in Sf9 cells to IC50 for recombinant human full length N-terminal GST-tagged HDAC6 expressed in Sf9 cells
[1] = target: T1, Protein deacetylase HDAC6 (Homo sapiens, UniProt Q9UBN7); assay: Inhibition of recombinant human full length N-terminal GST-tagged HDAC6 expressed in Sf9 insect cells using Fluor de Lys deacetylase or Fluor de Lys Green deacetylase substrate by fluorescent microplate reader assay
T1 sequence (Q9UBN7 whole entry): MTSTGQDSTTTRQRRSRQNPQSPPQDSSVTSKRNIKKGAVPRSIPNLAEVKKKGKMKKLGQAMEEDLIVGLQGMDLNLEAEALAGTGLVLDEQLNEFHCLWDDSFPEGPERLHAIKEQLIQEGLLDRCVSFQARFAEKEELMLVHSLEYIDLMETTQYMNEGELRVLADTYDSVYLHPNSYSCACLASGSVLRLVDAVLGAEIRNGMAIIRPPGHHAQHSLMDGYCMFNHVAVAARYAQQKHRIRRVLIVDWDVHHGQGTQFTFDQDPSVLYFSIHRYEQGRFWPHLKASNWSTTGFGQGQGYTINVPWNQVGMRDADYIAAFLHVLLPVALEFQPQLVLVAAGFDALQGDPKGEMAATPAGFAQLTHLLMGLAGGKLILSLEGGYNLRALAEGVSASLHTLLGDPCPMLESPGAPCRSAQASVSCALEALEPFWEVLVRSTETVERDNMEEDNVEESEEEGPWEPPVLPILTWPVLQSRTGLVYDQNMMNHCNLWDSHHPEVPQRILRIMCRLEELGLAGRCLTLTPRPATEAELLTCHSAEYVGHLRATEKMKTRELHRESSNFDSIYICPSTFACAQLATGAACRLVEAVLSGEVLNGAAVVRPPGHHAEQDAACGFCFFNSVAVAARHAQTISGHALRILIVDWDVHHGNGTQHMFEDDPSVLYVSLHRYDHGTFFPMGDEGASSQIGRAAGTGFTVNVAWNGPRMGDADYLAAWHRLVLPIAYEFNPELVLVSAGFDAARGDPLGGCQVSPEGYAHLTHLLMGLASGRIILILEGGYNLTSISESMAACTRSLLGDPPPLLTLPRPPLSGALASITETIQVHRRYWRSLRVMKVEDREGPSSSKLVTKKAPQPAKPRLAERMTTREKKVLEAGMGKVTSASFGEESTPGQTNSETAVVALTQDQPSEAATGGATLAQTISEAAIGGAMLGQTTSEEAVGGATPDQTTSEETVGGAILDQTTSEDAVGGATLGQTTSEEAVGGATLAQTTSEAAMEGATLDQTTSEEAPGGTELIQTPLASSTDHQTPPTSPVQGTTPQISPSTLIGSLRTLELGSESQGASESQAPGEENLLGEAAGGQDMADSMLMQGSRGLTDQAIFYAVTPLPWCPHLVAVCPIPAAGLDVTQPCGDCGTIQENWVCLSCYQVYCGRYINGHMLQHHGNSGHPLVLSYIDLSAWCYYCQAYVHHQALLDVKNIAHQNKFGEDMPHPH

Histone deacetylase 1 = Histone deacetylase 1 (Homo sapiens, UniProt Q13547); assay: Inhibition of recombinant human C-terminal His-tagged HDAC1 expressed in Sf9 insect cells using Fluor de Lys deacetylase or Fluor de Lys Green deacetylase as substrate by fluorescent microplate reader assay
Histone deacetylase 3 = Histone deacetylase 3 (Homo sapiens, UniProt O15379); assay: Inhibition of recombinant human C-terminal His-tagged HDAC3 (1 to 428 residues) expressed in Sf9 insect cells using Fluor de Lys deacetylase or Fluor de Lys Green deacetylase substrate by fluorescent microplate reader assay
Histone deacetylase 9 = Histone deacetylase 9 (Homo sapiens, UniProt Q9UKV0); assay: Inhibition of recombinant human C-terminal His-tagged HDAC9 (604 to 1066 residues) expressed in baculovirus expression system using Nepsilon-Trifluoroacetyl L-lysine substrate by fluorescent microplate reader assay
Histone deacetylase 5 = Histone deacetylase 5 (Homo sapiens, UniProt Q9UQL6); assay: Inhibition of recombinant human ful length N-terminal GST-tagged HDAC5 expressed in baculovirus expression system using Nepsilon-Trifluoroacetyl L-lysine as substrate by fluorescent microplate reader assay
Histone deacetylase 8 = target: T2, Histone deacetylase 8 (Homo sapiens, UniProt Q9BY41); assay: Inhibition of recombinant human full length C-terminal His-tagged HDAC8 expressed in baculovirus expression system using Fluor de Lys deacetylase or Fluor de Lys Green deacetylase substrate by fluorescent microplate reader assay
T2 sequence (Q9BY41 whole entry): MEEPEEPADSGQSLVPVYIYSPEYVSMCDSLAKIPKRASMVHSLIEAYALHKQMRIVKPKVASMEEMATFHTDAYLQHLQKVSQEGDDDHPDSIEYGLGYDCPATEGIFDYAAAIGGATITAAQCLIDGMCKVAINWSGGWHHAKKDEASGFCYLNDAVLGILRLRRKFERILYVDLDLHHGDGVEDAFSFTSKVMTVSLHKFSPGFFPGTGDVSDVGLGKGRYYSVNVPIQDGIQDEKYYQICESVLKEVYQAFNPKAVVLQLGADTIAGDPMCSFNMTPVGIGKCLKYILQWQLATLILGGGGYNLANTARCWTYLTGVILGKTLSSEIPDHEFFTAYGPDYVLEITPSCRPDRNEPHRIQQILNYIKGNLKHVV

Histone deacetylase 2 = Histone deacetylase 2 (Homo sapiens, UniProt Q92769); assay: Inhibition of recombinant human C-terminal His-tagged HDAC2 (1 to 488 residues) expressed in Sf9 insect cells using Fluor de Lys deacetylase or Fluor de Lys Green deacetylase substrate by fluorescent microplate reader assay
Histone deacetylase 11 = target: T3, Histone deacetylase 11 (Homo sapiens, UniProt Q96DB2); assay: Inhibition of recombinant human N-terminal His-tagged HDAC11 expressed in baculovirus expression system using Fluor de Lys deacetylase or Fluor de Lys Green deacetylase substrate by fluorescent microplate reader assay
T3 sequence (Q96DB2 whole entry): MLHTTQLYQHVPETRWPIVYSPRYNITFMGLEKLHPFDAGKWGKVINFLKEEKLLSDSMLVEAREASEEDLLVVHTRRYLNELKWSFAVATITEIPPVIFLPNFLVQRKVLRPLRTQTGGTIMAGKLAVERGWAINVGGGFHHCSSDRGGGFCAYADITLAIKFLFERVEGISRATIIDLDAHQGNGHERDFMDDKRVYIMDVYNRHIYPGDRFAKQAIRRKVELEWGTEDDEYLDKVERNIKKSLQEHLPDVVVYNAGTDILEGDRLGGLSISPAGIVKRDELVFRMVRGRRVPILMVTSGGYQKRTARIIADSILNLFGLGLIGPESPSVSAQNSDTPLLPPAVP

Histone deacetylase 4 = Histone deacetylase 4 (Homo sapiens, UniProt P56524); assay: Inhibition of recombinant human N-terminal GST-tagged and C-terminal His-tagged HDAC4 (627 to 1084 residues) expressed in Sf9 insect cells using Nepsilon-Trifluoroacetyl L-lysine as substrate by fluorescent microplate reader assay
Histone deacetylase 7 = target: T4, Histone deacetylase 7 (Homo sapiens, UniProt Q8WUI4); assay: Inhibition of recombinant human N-terminal GST-tagged HDAC7 (518 to end residues) expressed in baculovirus expression system using Nepsilon-Trifluoroacetyl L-lysine as substrate by fluorescent microplate reader assay
T4 sequence (Q8WUI4 whole entry): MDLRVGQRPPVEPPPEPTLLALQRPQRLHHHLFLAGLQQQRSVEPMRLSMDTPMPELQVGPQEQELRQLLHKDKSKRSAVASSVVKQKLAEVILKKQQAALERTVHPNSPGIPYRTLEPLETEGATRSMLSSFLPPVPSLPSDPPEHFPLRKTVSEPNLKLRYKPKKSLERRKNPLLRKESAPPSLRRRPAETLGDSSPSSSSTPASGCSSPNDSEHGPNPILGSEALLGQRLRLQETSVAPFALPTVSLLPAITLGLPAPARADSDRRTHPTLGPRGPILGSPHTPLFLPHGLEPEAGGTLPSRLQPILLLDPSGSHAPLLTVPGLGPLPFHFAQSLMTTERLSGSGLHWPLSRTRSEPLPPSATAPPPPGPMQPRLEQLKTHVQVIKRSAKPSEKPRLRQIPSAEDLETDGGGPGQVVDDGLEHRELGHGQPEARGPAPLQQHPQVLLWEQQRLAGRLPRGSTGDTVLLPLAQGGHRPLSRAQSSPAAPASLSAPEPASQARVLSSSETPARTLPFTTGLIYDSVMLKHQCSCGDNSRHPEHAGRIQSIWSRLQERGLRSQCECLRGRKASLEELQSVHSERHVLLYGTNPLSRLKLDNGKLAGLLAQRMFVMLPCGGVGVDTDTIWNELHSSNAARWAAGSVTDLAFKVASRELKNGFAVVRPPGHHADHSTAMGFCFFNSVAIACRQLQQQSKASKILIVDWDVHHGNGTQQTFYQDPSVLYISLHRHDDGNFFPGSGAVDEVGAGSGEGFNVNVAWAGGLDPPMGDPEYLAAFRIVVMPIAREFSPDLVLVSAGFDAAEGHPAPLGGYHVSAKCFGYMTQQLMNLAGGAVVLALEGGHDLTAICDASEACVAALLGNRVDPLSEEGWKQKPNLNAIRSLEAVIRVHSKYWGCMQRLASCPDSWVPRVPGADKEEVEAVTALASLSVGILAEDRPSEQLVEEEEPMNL

[2] = target: T5, Polyamine deacetylase HDAC10 (Homo sapiens, UniProt Q969S8); assay: Inhibition of recombinant human N-terminal FLAG-tagged HDAC10 (1 to 613 residues) expressed in Sf9 insect cells using Fluor de Lys deacetylase or Fluor de Lys Green deacetylase substrate by fluorescent microplate reader assay
T5 sequence (Q969S8 whole entry): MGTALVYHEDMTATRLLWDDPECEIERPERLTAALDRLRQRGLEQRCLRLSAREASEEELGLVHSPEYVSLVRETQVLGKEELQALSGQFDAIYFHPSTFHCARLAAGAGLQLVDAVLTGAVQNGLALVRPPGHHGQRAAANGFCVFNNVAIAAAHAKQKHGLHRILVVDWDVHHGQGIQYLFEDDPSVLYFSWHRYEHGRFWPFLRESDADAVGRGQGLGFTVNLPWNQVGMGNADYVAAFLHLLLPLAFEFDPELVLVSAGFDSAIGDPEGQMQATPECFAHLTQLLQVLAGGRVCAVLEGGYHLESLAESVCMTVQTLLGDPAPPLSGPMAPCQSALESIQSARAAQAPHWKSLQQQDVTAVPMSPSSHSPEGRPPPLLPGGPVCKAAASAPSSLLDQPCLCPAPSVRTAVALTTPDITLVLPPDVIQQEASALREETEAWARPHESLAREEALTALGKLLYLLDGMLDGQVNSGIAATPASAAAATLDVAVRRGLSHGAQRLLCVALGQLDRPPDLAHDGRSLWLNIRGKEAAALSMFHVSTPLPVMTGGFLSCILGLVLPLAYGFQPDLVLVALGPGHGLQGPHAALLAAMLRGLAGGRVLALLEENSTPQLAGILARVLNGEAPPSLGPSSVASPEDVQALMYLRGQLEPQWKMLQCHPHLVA

Sequence of Histone deacetylase 2 (Q92769 whole entry, the tested form may be a part): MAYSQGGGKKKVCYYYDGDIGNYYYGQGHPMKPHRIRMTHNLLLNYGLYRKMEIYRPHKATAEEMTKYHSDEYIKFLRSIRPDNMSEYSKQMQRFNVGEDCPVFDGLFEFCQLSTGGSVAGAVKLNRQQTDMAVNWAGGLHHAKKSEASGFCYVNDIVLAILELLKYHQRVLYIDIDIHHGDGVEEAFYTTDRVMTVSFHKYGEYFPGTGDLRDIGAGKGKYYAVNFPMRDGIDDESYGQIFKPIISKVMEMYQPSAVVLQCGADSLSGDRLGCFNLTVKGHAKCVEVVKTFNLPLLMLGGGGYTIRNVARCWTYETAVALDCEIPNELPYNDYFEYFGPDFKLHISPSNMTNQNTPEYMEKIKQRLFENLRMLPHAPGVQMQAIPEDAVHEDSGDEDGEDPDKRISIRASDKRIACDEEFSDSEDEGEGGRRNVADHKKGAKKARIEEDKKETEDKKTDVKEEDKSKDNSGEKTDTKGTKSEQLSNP
Sequence of Histone deacetylase 3 (O15379 whole entry, the tested form may be a part): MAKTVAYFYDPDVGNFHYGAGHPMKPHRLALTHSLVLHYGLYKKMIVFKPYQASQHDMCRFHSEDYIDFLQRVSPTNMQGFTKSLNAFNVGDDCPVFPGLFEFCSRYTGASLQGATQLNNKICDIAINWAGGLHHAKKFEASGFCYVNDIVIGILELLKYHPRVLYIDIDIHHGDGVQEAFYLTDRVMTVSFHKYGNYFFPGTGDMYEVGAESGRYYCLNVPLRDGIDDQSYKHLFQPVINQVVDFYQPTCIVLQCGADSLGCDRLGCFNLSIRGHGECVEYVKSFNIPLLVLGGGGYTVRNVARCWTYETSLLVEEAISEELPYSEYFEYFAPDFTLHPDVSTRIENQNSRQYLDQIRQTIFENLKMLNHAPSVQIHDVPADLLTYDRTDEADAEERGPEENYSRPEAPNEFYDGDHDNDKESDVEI
Sequence of Histone deacetylase 1 (Q13547 whole entry, the tested form may be a part): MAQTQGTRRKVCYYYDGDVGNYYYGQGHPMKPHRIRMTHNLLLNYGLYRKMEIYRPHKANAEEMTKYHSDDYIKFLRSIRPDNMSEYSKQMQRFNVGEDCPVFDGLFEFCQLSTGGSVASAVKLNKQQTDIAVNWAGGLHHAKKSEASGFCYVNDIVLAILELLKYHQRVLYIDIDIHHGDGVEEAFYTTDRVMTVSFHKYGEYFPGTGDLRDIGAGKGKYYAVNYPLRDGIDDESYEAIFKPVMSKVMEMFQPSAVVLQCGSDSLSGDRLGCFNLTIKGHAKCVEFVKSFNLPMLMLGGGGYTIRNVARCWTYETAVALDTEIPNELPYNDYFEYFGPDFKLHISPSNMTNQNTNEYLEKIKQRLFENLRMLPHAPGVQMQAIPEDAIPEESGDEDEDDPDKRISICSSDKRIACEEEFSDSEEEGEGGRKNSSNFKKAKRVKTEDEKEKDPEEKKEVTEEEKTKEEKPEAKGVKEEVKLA
Sequence of Histone deacetylase 9 (Q9UKV0 whole entry, the tested form may be a part): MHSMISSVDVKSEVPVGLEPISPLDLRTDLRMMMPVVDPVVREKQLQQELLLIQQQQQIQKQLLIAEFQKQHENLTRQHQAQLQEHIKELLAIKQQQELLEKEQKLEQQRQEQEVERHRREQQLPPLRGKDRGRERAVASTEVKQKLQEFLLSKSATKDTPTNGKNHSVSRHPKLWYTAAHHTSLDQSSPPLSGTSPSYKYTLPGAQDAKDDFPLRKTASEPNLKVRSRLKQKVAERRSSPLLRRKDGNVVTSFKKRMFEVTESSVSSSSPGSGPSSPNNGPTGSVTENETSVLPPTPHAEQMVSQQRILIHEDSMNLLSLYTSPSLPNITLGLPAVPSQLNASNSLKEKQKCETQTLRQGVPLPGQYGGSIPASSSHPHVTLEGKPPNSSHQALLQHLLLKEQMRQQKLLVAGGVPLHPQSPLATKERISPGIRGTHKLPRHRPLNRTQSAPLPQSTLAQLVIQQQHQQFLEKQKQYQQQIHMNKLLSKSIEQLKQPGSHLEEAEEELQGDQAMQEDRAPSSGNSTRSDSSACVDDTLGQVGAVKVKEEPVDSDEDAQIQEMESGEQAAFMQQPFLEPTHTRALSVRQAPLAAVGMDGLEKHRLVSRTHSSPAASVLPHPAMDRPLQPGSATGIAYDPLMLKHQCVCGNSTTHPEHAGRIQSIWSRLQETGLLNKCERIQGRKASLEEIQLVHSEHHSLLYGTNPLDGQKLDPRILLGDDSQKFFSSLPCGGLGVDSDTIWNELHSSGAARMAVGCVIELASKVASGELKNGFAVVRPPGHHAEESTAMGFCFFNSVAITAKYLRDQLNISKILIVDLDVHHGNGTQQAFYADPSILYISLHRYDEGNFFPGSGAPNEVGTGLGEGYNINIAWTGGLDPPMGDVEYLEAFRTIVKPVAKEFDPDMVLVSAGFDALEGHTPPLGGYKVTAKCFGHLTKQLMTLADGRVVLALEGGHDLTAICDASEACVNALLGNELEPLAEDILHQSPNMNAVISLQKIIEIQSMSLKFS
Sequence of Histone deacetylase 4 (P56524 whole entry, the tested form may be a part): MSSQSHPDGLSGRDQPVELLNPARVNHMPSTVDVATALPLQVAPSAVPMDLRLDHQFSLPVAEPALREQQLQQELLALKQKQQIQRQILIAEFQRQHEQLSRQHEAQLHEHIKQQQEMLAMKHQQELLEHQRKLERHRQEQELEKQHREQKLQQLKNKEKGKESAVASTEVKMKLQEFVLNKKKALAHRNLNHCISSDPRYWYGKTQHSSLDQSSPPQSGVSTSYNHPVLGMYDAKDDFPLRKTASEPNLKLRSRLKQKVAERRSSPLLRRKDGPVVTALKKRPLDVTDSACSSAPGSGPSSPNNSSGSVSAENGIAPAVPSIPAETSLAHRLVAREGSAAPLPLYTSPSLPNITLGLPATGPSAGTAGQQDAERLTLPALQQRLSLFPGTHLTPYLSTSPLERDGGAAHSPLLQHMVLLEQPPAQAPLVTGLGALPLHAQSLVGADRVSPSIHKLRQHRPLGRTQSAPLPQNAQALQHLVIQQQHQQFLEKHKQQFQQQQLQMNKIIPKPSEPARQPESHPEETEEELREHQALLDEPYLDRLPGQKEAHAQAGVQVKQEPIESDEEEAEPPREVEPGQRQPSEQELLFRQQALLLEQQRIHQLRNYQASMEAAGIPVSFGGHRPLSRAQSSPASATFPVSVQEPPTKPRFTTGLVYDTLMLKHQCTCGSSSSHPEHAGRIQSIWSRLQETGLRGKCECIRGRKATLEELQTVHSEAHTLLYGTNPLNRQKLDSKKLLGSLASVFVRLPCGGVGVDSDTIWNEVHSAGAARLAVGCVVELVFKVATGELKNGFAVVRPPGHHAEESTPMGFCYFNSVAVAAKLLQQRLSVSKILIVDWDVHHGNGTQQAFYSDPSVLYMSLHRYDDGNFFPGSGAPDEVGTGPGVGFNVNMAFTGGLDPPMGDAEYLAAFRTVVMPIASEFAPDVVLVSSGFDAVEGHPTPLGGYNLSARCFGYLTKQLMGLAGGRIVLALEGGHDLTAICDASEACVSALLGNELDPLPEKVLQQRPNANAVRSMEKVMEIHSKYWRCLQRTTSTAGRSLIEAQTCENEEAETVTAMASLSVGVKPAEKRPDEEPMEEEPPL
Sequence of Histone deacetylase 5 (Q9UQL6 whole entry): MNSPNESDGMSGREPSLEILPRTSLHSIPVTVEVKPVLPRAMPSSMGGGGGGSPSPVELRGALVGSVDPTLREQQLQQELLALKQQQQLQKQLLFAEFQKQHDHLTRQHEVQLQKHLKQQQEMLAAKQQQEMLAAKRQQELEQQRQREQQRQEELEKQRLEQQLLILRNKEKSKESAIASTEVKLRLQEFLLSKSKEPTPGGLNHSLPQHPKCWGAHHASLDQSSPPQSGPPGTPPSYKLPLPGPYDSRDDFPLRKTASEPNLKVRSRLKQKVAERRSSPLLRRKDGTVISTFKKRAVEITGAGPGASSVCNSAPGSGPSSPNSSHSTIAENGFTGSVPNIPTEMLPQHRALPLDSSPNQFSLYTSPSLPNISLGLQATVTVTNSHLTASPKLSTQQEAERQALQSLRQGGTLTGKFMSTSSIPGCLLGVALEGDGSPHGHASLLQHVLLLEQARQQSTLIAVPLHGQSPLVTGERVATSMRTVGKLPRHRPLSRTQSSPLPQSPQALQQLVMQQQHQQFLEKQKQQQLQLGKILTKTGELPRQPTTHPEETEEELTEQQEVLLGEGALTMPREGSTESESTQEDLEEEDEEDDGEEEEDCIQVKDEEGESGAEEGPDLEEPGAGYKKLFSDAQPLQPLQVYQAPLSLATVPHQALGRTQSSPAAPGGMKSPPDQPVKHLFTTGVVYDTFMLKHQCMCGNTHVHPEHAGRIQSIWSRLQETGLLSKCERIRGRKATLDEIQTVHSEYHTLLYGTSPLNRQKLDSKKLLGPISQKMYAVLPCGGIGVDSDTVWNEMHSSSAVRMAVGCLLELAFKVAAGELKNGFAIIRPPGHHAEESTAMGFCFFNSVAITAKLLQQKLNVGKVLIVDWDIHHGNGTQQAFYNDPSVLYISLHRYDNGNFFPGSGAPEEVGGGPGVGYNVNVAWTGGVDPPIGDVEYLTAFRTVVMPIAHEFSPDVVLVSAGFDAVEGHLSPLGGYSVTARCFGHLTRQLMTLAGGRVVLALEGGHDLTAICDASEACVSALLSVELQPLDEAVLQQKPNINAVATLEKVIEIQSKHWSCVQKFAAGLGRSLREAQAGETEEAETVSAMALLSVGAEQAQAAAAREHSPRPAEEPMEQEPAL

SMILES | Selectivity Index (Homo sapiens) | IC50 [1] | IC50 (Histone deacetylase 1) | also measured
O=C(NO)c1ccccc1 [BENZOHYDROXAMATE] | 19 | 1.34 µM | 25.4 µM | –
Cc1ccc(C(=O)NO)cn1 | 162 | 0.07 µM | 11.4 µM | –
Nc1ccc(C(=O)NO)cn1 | 40 | 0.24 µM | 9.71 µM | –
Nc1ncc(C(=O)NO)cn1 | 47 | 0.064 µM | 3.06 µM | –
Nc1ccc(C(=O)NO)cc1 | 18 | 0.389 µM | 7.14 µM | –
O=C(NO)c1ccc(Cn2nnc(-c3ncccn3)n2)cc1 | 733 | – | 0.93 µM | IC50 (Histone deacetylase 3): 0.884 µM; IC50 (Histone deacetylase 9): 1.7 µM; IC50 (Histone deacetylase 5): 5 µM; IC50 (Histone deacetylase 8): 0.32 µM; IC50 (Histone deacetylase 2): 3.01 µM; IC50 (Histone deacetylase 11): 0.762 µM; IC50 (Histone deacetylase 4): 4.6 µM; IC50 (Histone deacetylase 7): 1.01 µM; IC50 [2]: 0.474 µM
CC(=O)Nc1ccc(C(=O)NO)cc1 | 11 | 0.162 µM | 1.91 µM | –
O=C(NO)c1cccnc1 [NICOXAMAT] | 51 | 0.679 µM | 35 µM | –
Cc1ccc(C(=O)NO)cc1F | 140 | 0.049 µM | 6.82 µM | –
Nc1ccc(C(=O)NO)cc1F | 40 | 0.183 µM | 7.39 µM | –
Cc1c(F)cc(C(=O)NO)cc1F | 505 | 0.027 µM | 13.8 µM | –
CC(=O)Nc1ccc(C(=O)NO)cc1F | 55 | 0.058 µM | 3.21 µM | –
O=C(NO)c1cc(F)c(Cn2nnnc2-c2cccs2)c(F)c1 | – | – | – | IC50 (Histone deacetylase 3): 6.04 µM; IC50 (Histone deacetylase 2): 9.23 µM; IC50 (Histone deacetylase 11): 5.66 µM; IC50 [2]: 8.74 µM
O=C(NO)c1cccc(F)c1 | 64 | 0.453 µM | 29.4 µM | –
CCN(CC)Cc1ccc2cc(COC(=O)Nc3c(F)cc(C(=O)NO)cc3F)ccc2c1 | 70 | 0.01 µM | 0.718 µM | –
Cc1ccc(C(=O)NO)cc1 | 40 | 0.14 µM | 5.64 µM | –
Nc1c(F)cc(C(=O)NO)cc1F | 141 | 0.112 µM | 15.8 µM | –
O=C(NO)c1cc(F)c(Cn2nnc(-c3ncccn3)n2)c(F)c1 | – | – | 3.96 µM | IC50 (Histone deacetylase 3): 5.18 µM; IC50 (Histone deacetylase 9): 0.48 µM; IC50 (Histone deacetylase 5): 2.79 µM; IC50 (Histone deacetylase 8): 0.504 µM; IC50 (Histone deacetylase 2): 17.2 µM; IC50 (Histone deacetylase 11): 3.07 µM; IC50 (Histone deacetylase 4): 0.562 µM; IC50 [2]: 9.08 µM
